Each block holds one compound with its values, some of them ahead of it.
Tests used:
[1] = system: PI4KIIα +/− ES-derived neurons; test: Aβ42 generation and PIP synthesis in PI4KIIα +/− ES cell-derived pyramidal neurons; format: cell-based, mouse
Source text: Mouse embryonic stem (ES) cell-derived pyramidal neurons that harbor the heterozygote knockout of the PI4KIIα allele (PI4KIIα +/−; purchased from Sanger Institute Gene Trap Resource; http://www.sanger.ac.uk/PostGenomics/genetrap/) were then used to further study the role for PI4KIIα in Aβ42 generation in neurons. Differentiation and morphology of pyramidal neurons from PI4KIIα heterozygote (+/−) ES cells were indistinguishable from those from match wild-type ES cells (representative neuronal staining is shown in FIGS. 14A and B). […] Aβ42 generation was substantially elevated in the neurons derived from PI4KIIα +/−ES cells.

APP/PS1 mice = test: Radial-arm water-maze in APP/PS1 mice; format: in vivo, mouse; details: i.p., 10 mg/kg, three weeks, 3 month-old APP/PS1 mice
Method: Therefore experiments were performed to determine whether (20S)Rg3 can improve the memory impairments in an AD mouse model. (20S)Rg3 was administered for three weeks (i.p., 10 mg/kg) to 3 month-old APP/PS1 mice and age-matched littermate controls. Mice were then subjected to behavioral testing in the radial-arm water-maze paradigm (74).

mouse cortical neurons = test: Phosphoinositide / anionic phospholipid levels in cultured cortical neurons (HPLC with suppressed conductivity); details: for PIP2 levels after Ca2+ ionophore: 2 μM; for effect of Ca2+ chelation on oAβ42-induced PIP2 decrease: oAβ42 for 60 min, EGTA 2 mM
Method: HPLC Lipid Analysis. Cells grown in 15-cm^2 dishes were scraped in 0.75 ml ice-cold MeOH: 1M HCl (1:1) supplemented with 2 mM AlCl3. Lipids were then extracted and deacylated by incubation with 0.5 ml methylamine reagent (MeOH:40% methylamine in water:n-butanol:water 47:36:9:8) at 50° C. for 45 min. The aqueous phase was dried, resuspended in 0.5 ml of n-butanol: petroleum ether:ethyl formate (20:40:1), and extracted twice with an equal volume of water. Aqueous extracts were dried, resuspended in water, and subjected to anion-exchange HPLC on an Tonpac AS11-HC column (Dionex). Negatively charged glycerol head groups were eluted with a 1.5-86 mM KOH gradient and detected online by suppressed conductivity 75 in a Dionex Ion Chromatography system equipped with an ASRS-ultra II self-regenerating suppressor. Individual peaks were identified and peak areas were calculated using the Chromeleon software (Dionex). Using deacylated anionic phospholipids as standards, lipid masses were calculated and expressed as molar fractions of total anionic phospholipids present in the sample (see Ref. 69).
2-week-old, cultured mouse cortical neurons were incubated with three different Aβ42 preparations (monomers, soluble oligomers, and fibrils) at concentrations of 200 nM. The levels of PIP2 were measured by conductance-based HPLC quantitation.
This preparation contains a mixture of monomers, trimers and tetramers as well as traces of dimers and high molecular weight oligomers, as described previously. Potential effects of this preparation were investigated either after an acute (0-120 min) or a subchronic treatment (72 h). The levels of phosphoinositides as well as a variety of other anionic phospholipids were measured and quantified in neuronal extracts using HPLC combined with suppressed conductivity detection (69, 71).
Cell culture. […] Primary cultures from cortical neurons were generated from newborn mice as described (126). Briefly, cortices were dissected out, trypsinized for 45 minutes, and then dissociated with a Pasteur pipette and plated on poly-ornithine coated 10 mm dishes at a density of 25,000 cells/cm^2 in Neurobasal-A medium containing 1 mM kyneurenic acid to reduce enhanced synaptic transmission due to the high density of the cultures.
Lipid measurements. Cultures were scrapped on a methanol:1N HCl 1:1 buffer supplemented with 2 mM AlCl3. Ice-cold chloroform (0.4 ml) was then added, and samples were vortexed for 1 min. The solvent phase was washed with 1 ml. methanol:2 mM oxalic acid (1:0.9 vol/vol) and dried under a flow of nitrogen.

Aβ42 = target: T1, Aβ42 (Homo sapiens, UniProt P05067); test: Oligomerization process of Aβ42
T1 construct: Synthetic Aβ (1-42) peptide was purchased from American Peptide; purchased American Peptide (Sunnyvale, Calif.); host or cells: synthetic peptide

[2] = system: CA1 region of the hippocampus; test: Long-term potentiation in adult hippocampal slices (CA1, tetanic stimulation of Schaeffer collateral pathway); set-up: species or system mouse
Source text: Long-term potentiation (LTP) was induced in the CA1 region of the hippocampus through tetanic stimulation of the Schaeffer collateral pathway.

PIPK1γ = target: T2, PIPK1γ (Homo sapiens, UniProt O60331); test: PIPK1γ activity assay; format: biochemical; details: 50 μM
T2 construct: GST
Source text: Thus, (20S)Rg3 serves as an activator of PI4KIIα, resulting in the increase in the steady-state levels of PIP and subsequently the levels of PIP2.

HeLa cells = test: Lipid raft fractionation and Western blot of PS1 C-terminal fragments; format: cell-based
PC12 cells = test: PIP2 sensor GFP-PHPLCδ1 plasma membrane/cytosol localization; format: cell-based; details: for GFP-PHPLCδ1 probe localization: oAβ42, 2 μM ionomycin, Aβ42Rev
Method: Confocal microscopy. […] Cells have been analyzed after being treated for different time lengths: 0, 10 minutes, 30 minutes and 120 minutes. Cells were washed in phosphate buffer and fixed with 4 percent paraformaldehyde. Confocal z-stack images (0.5 μm) of PC12 cells were obtained using Nikon EZ-C1.2.30 confocal microscope, (×100) oil immersion objective. Quantification of GFP intensity was calculated using the ImageJ software: for each cell in a given image, a line intensity profile across the cell was obtained. The relative decrease in plasma membrane localization was calculated as the ratio between the plasma membrane fluorescence intensity and the average cytosolic fluorescence intensity. The average of the ratio was reported in the graph.
PC12 cells were cultured in RPMI media supplemented with 1 mM glutamine, 5% FBS, 10% horse serum and penicillin, streptomycin. The day before transfection, PC12 cells were split 50% and plated on poly-D-lysine coated coverslips. Cells were transfected with Lipofectamine 2000 as per the manufacturer's protocol with GFP-PHPLCδ1. After 16-24 hours, cells were treated as indicated for 30 minutes in conditioned media. Cells were then briefly washed in PBS and fixed for 20 minutes in 4% paraformaldehyde. Cells were then washed in 0.1M glycine and twice in PBS for 5 minutes each. Cells were mounted using Vectashield. Images were collected using a con-focal microscope and the plot profile was analyzed with ImageJ 1.37v. The ratio of the fluorescence profiles of the plasma membrane and the cytosol were calculated and deemed to represent translocation of the PIP2 probe GFP-PH-PLCδ1 (72).

[3] = system: PI4KIIα-overexpressing cells; test: Aβ42 levels in PI4KIIα-overexpressing cells; format: cell-based
Method: Since (20S)Rg3 potentiates PI4KIIα activity (conversion from PI to PIP), it was determined whether the increase in PI4KIIα activity exerts similar effects on Aβ42 generation as observed in the (20S)Rg3-treated cells. Overexpression of PI4KIIα leads to increased protein levels of PI4KIIα and increased PI 4-kinase activity as measured by lipid kinase assay. […] Thus, increased levels of the (20S)Rg3 target protein PI4KIIα may amplify the effects of the Aβ42-lowering activity of (20S)Rg3.

PI4KIIα = target: T3, PI4KIIα (Homo sapiens, UniProt Q9BTU6); test: PI4KIIα lipid kinase activity assay with TLC analysis; format: biochemical
T3 construct: made in house
Method: Lipid kinase assay and thin layer chromatography. In vitro lipid phosphorylation assays on post-nuclear supernatant of HEK293, Neuro2a or CHO cells expressing either WT or FAD mutant PS1 and PS2, were carried out as previously described (70). Briefly, 100 μg protein from the supernatant were mixed with 2.5 μl ATP (final: 50 μM), 2.5 μl CaCl2 (final: 50 μM), 27.0 μl EGTA-free kinase buffer (25 mM Hepes, 100 mM KC1, 2.5 mM MgCl2) and 0.5 μl gamma ATP (final 100 nCi/μl) and samples incubated at 37° C. for 15 min. Reaction products were extracted and analyzed by thin layer chromatography (TLC) silica plate (solvent: 64—acetone 30—methanol 24—acetic acid 32—water 14 (v/v)) and visualized by autoradiography.
Mammalian expression of a construct encoding either wild-type (IIα) or the kinase-dead mutant (IIα-KD) forms of PI4KIIα (HA-tagged) were transfected into CHO cells. The enzyme was immuno-isolated using anti-HA affinity beads from cell extracts. The purified PI4KIIα proteins were subjected to a lipid kinase activity assay and TLC analysis using PI as a substrate (FIG. 10C). PI4KIIα, but not the kinase-dead mutant, enhanced the incorporation of [γ32P]-ATP into PIP (FIG. 10C,D).

[4] = previous studies (refs 113, 114); cited from earlier work
[5] = system: N2a cells stably expressing human APP with the Swedish mutation; test: Aβ42/Aβ40 production in N2a cells stably expressing human APP with the Swedish mutation; format: cell-based; details: 6 hours treatment, read-out: EC50, inhibition of production of Aβ42 as well as Aβ40
Method: N2a cells stably expressing human APP with the Swedish mutation were grown in DMEM-supplemented with 50% Opti-MEM, 10% FBS, penicillin, streptomycin, and G418. Cells were grown to 80-90% confluence and treated for 6 hours with the drugs as indicated in 900 μl media. The conditioned media was harvested and centrifuged for 15 minutes at 14,000 rpm in a table top Eppendorf centrifuge 5417R. The adherent cells were washed two times with ice cold PBS and lysed in 100 μl super IP buffer (10 mM Tris Cl, pH, 7.4, 150 mM NaCl, 2 mM EDTA, 1% Triton X-100, 0.25% NP-40, protease inhibitors). Cell lysates were scraped and incubated for 15 minutes on ice before centrifugation at 14,000 rpm in a table-top Eppendorf centrifuge 5417R. Cleared conditioned media and lysates were stored at −80° C. until use. Aβ 42 and Aβ40 were quantified with the commercially available kit from Biosource as indicated in the protocol. Protein concentration of the cell lysate was determined using the BCA assay from Pierce.
KU-55933 is a small molecule inhibitor of ATM kinase as well as PI3K family members (FIG. 22). […] Aβ 42 and Aβ40 were quantified with the commercially available kit from Biosource as indicated in the protocol. Protein concentration of the cell lysate was determined using the BCA assay from Pierce.

[6] = system: N2a cells stably expressing APP harboring the Swedish mutation; test: Caspase 3 cleavage Western blot; format: cell-based; details: 6 hours; concentrations which decreased Aβ42 generation
Method: Western blot analysis of full length APP and caspase3 was conducted on 30 μg of lysate collected as described above from N2a cells stably expressing APP harboring the Swedish mutation. Cells were treated for 6 hours with KU-55933 at concentrations indicated. APP was detected using the LN27 antibody from Zymed and caspase 3 full length and cleavage product were probed using the caspase 3 antibody from Cell Signaling Technology.

T3 sequence (Q9BTU6 whole entry): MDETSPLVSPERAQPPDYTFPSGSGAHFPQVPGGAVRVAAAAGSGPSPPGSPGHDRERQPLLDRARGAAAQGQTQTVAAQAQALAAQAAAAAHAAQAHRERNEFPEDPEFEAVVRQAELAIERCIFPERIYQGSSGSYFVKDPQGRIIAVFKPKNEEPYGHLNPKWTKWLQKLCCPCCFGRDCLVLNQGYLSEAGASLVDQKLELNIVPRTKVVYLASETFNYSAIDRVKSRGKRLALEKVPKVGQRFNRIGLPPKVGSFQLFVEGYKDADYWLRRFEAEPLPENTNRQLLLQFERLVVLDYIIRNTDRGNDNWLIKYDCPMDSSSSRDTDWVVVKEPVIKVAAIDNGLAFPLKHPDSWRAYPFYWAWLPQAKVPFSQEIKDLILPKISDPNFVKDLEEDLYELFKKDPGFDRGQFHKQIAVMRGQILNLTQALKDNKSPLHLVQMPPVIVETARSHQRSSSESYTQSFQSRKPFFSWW
T1 sequence (P05067 672-713 limits assumed): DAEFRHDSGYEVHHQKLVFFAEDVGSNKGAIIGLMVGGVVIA
T2 sequence (O60331 whole entry): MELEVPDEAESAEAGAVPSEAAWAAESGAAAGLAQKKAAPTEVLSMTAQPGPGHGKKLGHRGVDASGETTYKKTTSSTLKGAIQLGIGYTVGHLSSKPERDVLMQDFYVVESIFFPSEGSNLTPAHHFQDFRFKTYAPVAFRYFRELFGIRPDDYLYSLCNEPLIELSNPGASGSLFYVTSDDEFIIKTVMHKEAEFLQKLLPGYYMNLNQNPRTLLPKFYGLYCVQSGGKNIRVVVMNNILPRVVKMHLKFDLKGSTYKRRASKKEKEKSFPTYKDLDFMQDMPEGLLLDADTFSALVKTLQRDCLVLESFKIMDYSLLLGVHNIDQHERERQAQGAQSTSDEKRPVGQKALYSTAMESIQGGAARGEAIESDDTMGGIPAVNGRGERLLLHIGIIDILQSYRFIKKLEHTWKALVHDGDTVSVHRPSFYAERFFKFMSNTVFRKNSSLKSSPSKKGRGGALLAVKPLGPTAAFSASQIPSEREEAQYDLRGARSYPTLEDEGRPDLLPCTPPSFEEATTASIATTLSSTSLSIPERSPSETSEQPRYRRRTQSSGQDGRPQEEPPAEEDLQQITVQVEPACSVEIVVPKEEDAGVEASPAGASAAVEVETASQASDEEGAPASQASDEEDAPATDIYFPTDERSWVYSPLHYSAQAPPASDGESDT

activity of PIPK1γ (PIPK1γ): did not confer any detectable effects | PIP and PIP2 formation with both PI4KIIα and PIPK1γ (PI4KIIα; both enzymes incubated with compound): led to an increase of both PIP and PIP2
Compound: CC(C)=CCC[C@](C)(O)[C@H]1CC[C@]2(C)[C@@H]1[C@H](O)C[C@@H]1[C@@]3(C)CC[C@H](O[C@@H]4O[C@H](CO)[C@@H](O)[C@H](O)[C@H]4O[C@@H]4O[C@H](CO)[C@@H](O)[C@H](O)[C@H]4O)C(C)(C)[C@@H]3CC[C@]12C [(20S)Rg3]
ability to reduce Aβ42 ([1]; PI4KIIα +/− ES-derived neurons): no longer able to reduce Aβ42 | compound-induced PIP synthesis ([1]; PI4KIIα +/− clonal lines AC37 and AD14): substantially reduced | spatial working memory deficits (APP/PS1 mice): dramatically improved spatial working memory deficits | steady-state levels of PIP and PIP2 (mouse cortical neurons; 100 μM): increased steady-state levels of both PIP and PIP2 | Aβ42 oligomer-induced PIP2 reduction, pre-incubation (mouse cortical neurons; cells pre-incubated with compound): blocked efficiently | oAβ42-induced increase in PA levels (mouse cortical neurons; cultured neurons): inhibited the increase in PA levels | Aβ42 oligomer-induced reduction in PIP2 levels (mouse cortical neurons; treatment / co-treatment of cultured neurons): inhibited the reduction in PIP2 levels | effect on oligomerization process of Aβ42 (Aβ42): no effects on the oligomerization process of Aβ42 | LTP on co-incubation with Aβ oligomers ([2]; 10 μM): resulted in normal LTP | lipid raft-associated PS1-CTF levels (HeLa cells; HeLa cells): significantly reduced | total PS-CTF levels (HeLa cells; HeLa cells): unchanged | Aβ oligomer-induced loss of plasma membrane fluorescence (PC12 cells; co-incubation with Aβ oligomers): prevented the loss of the plasma membrane fluorescence | Aβ42 reduction [3]: conferred additive effects on Aβ42 reduction | PI4KIIα activity (PI4KIIα; 50 μM with purified enzyme): enhanced PI4KIIα activity in a dose-dependent manner

Compound: CNc1ccc2oc(C[C@H]3O[C@@]4(CC[C@H]3C)O[C@H]([C@H](C)C(=O)c3ccc[nH]3)[C@H](C)C[C@H]4C)nc2c1C(=O)O [A23187]
PIP2 levels after Ca2+ ionophore (mouse cortical neurons): caused PIP2 levels to decrease

Compound: CC(=O)OCOC(=O)CN(CC(=O)OCOC(C)=O)c1ccccc1OCCOc1ccccc1N(CC(=O)OCOC(C)=O)CC(=O)OCOC(C)=O [BAPTA-AM]
effect of Ca2+ chelation on oAβ42-induced PIP2 decrease (mouse cortical neurons): blocked the action of oAβ42 | increase in the levels of PtdIns(4,5)P2 (mouse cortical neurons; vehicle-treated and oAβ42-treated cortical neurons): 2 fold

Compound: O=C(O)CN(CCOCCOCCN(CC(=O)O)CC(=O)O)CC(=O)O [EGTA]
effect of Ca2+ chelation on oAβ42-induced PIP2 decrease (mouse cortical neurons): prevented oAβ42 from decreasing PIP2 levels

Compound: O=c1cc(-c2cccc3c2Sc2ccccc2S3)oc(N2CCOCC2)c1 [KU-55933]
cytotoxicity [4]: found not to be cytotoxic | EC50 [5]: 3.5 µM | caspase 3 cleavage [6]: did not induce caspase 3 cleavage | depletion of PIP2 caused by Aβ42 oligomers (PC12 cells; 30 minutes, concentration comparable to EC50 for Aβ42): rescued the depletion of PIP2

Compound: COc1ccc2c(c1)CC[C@@H]1[C@@H]2CC[C@]2(C)[C@@H](NCCCCCCN3C(=O)C=CC3=O)CC[C@@H]12 [U73122]
PIP2 levels on oAβ42 treatment in presence of PLC inhibitor (PC12 cells; oAβ42 60 min, inhibitor 0.5 μM): PIP2 levels remained unaffected by oAβ42

Compound: C[C@H](CCC(=O)O)C[C@H](C)C[C@H](C)C(=O)/C=C(\O)[C@H](C)C[C@H](C)C/C=C/[C@@H](C)[C@@H](O)[C@@H](C)[C@@H](O)C[C@@H]1CC[C@@](C)([C@H]2CC[C@@](C)([C@@H](C)O)O2)O1 [ionomycin]
PIP2 levels after Ca2+ ionophore (mouse cortical neurons): caused PIP2 levels to decrease | GFP-PHPLCδ1 probe localization (PC12 cells): mimicked

Compound: CSc1ccc(/C=C2/C(C)=C(CC(=O)O)c3cc(F)ccc32)cc1 [sulindac sulfide]
association of PS1 fragments with lipid rafts (HeLa cells): did not confer any effects

Compound: oAβ42: crude oligomer preparation made from synthetic Aβ42 peptides
ATP levels (mouse cortical neurons; 200 nM): normal | effect on PA levels (mouse cortical neurons; 200 nM, 2-week-old cultured mouse cortical neurons): up-regulated | number of apoptotic nuclei (mouse cortical neurons; 3-day treatment, versus vehicle): comparable or slightly less | amount of pyknosis (mouse cortical neurons; 3-day treatment, versus vehicle-treated neurons): undistinguishable from that occurring in vehicle-treated neurons | levels of PtdA (mouse cortical neurons; crude oligomer preparation of synthetic Aβ42, after 120 min): approximately 130 % of control | effect on LTP ([2]; control (Synj1+/+) slices): partially impaired LTP | GFP-PHPLCδ1 probe localization (PC12 cells): significant disappearance of the probe from the plasma membrane

From patent US8288378B2, “Phosphoinositide modulation for the treatment of neurodegenerative diseases” (The Trustees of Columbia University in the City of New York, priority 2006, dated 2012)
